Five compounds from EP4806892A1, “CEREBLON E3 UBIQUITIN LIGASE INHIBITOR” (GAN & LEE PHARMACEUTICALS CO., LTD., priority 2023, dated 2025) can be followed below.

Common to all, as to assay type: cell-based
For test [1], the target named is T1, AR protein (Homo sapiens, UniProt P10275, T878A).
T1 construct: AR-positive human prostate cancer cells (LNCaP, cell source: ATCC); host or cells: LNCaP
Briefly: AR protein degradation in LNCaP cells (Western blot). To be noted: 8 hours. The procedure:
AR-positive human prostate cancer cells (LNCaP, cell source: ATCC) were cultured in RPMI 1640 (ATCC catalog number 30-2001) containing 10% FBS (Hyclone catalog number SH30406.05), and the cells were inoculated into a six-well microplate (Thermo catalog number 140675) at a density of 1.5 × 10^5 cells/well. After the cells were cultured overnight in a carbon dioxide incubator (ESCO), the prepared compound of the present invention and the positive control sample ARV-766 (source: energy chemical) solution of different concentrations were added at a volume of 1 µL/well to make the final concentrations of the compound and the positive control sample reach 100nM and 10nM, respectively. At the same time, the corresponding solvent control was set and cultured for 8 hours. After 8 hours of culture, the culture medium was removed, the cells were washed with PBS, and RIPA lysis buffer containing 1% Protease Inhibitor Cocktail was added. After lysis and centrifugation, the total protein extract was obtained, and the protein concentration in the extract was detected by BCA method. Protein electrophoresis was performed using SDS-PAGE, and then the protein was transferred to a PVDF (Millipore Sigma catalog number PSRP010R5) membrane at a constant voltage of 100V for 60 minutes. The PVDF membrane was placed in a 5% milk powder 1×TBST solution and blocked at room temperature for 1 hour. The primary antibody solution (Anti-Androgen receptor, Cell Signaling Technology catalog number: 5153S; 1:2000 dilution) was prepared and incubated at 4°C overnight. The primary antibody solution was discarded and the PVDF membrane was washed with 1×TBST for 5 minutes each time, three times. The secondary antibody solution (Thermo, catalog number SA5-35571; 1:7500 dilution) was prepared and incubated at room temperature for 1 hour. The secondary antibody solution was discarded and the PVDF membrane was washed with 1×TBST for 5 minutes each time, three times. A dual-color infrared laser imaging system (Licor catalog number Odyssey CLX) was used for Western membrane imaging. The Image Studio software was used to analyze the grayscale of the bands. GAPDH protein bands were also detected for each sample as an internal reference. The AR protein degradation rate of the compound and the positive control sample was calculated based on the grayscale of the protein bands. Among them, "A" means degradation rate ≥ 50%, "B" means 50%> degradation rate ≥ 20%, "C" means 20% degradation rate ≥ 10%, and "D" means degradation rate less than 10%.
For orientation: Immunoblotting shows a protein as a band on a membrane.

Test [2] relates to LNCAP cell. Briefly: LNCaP cell proliferation inhibition (WST-8). The note with it: Homo sapiens, LNCaP FGC cells, 96 hours, read-out: IC50 for inhibiting LNCAP cell proliferation. The method, then: LNCaP FGC cells (ATCC, CLR-1740) were cultured in RPMI 1640 (ATCC, 30-2001) complete medium supplemented with 10% fetal bovine serum (Hyclone, SH30406.05). On the first day of the experiment, LNCaP FGC cells were seeded at a density of 5,000 cells/well in 96-well plates using RPMI 1640 medium supplemented with 10% fetal bovine serum, with 100 µL of cell suspension per well. The cells were cultured overnight in a 37°C, 5% CO2 cell incubator. On the second day, 100 µL of different concentrations of the compound to be tested and the positive control sample ARV-766 (source: Energy Chemical) prepared in culture medium were added to each well. The final concentration of the compound was 9 concentration points of 5-fold serial dilution starting from 10 µM. The wells to which 100 µL of RPMI 1640 culture medium containing 10% fetal bovine serum was added were set as controls. The cells were cultured in a cell culture incubator at 37°C and 5% CO2 for 96 hours. On the sixth day, the 96-well cell culture plate was removed, and 1/10 volume of WST-8 (Beytime, C0040) reagent was added to each well. The absorbance at 450 nm was detected using a microplate reader (TECAN, F50).

Test [3] deals with VCaP cell. Briefly: VCaP cell proliferation inhibition (WST-8). The note with it: Homo sapiens, VCaP cells, 168 hours, read-out: IC50 for inhibiting VCAP cell proliferation. The procedure: VCaP cells (ATCC, CRL-2876) were cultured in DMEM (Gibco, 11995-065) complete medium containing 10% fetal bovine serum (Hyclone, SH30406.05). On the first day of the experiment, VCaP cells were seeded at a density of 15,000 cells/well in a 96-well plate using DMEM medium containing 10% fetal bovine serum, with 100 µL of cell suspension per well, and cultured overnight in a cell culture incubator at 37°C and 5% CO2. […] The final concentration of the compound was 9 concentration points of 5-fold serial dilution starting from 10 µM. The wells to which 100 µL of DMEM medium containing 10% fetal bovine serum was added were set as blank controls and cultured in a cell culture incubator at 37°C and 5% CO2 for 168 hours. On the ninth day, the 96-well cell culture plate was removed and 1/10 volume of WST-8 (Beytime, C0040) reagent was added to each well. The absorbance at 450 nm was measured using a microplate reader (TECAN, F50).
For orientation: Tetrazolium assays rely on reduction of a dye to a coloured formazan, in cell work by metabolically active cells.

The test system of test [4] is T-47D cells. Briefly: T-47D cell proliferation inhibition (CCK-8). The note with it: Homo sapiens, T47D, 144 h, 6 days. The procedure: The complete culture medium required for breast ductal carcinoma T-47D cells is 1640 (ATCC, Product number: A10491-01) basal medium containing 10% fetal bovine serum. T-47D cells were seeded in 96-well plates at a density of 3,000/well, and different concentrations of PROTAC compounds 1-55 provided in the embodiments of the present invention and the positive control sample ARV-471 (source: Inokai) were prepared to treat the cells and incubated at 37°C, 5% CO2 in a cell culture incubator for 6 days. According to the manufacturer's instructions, the CCK-8 kit (Beyotime, Product number: C0040) was used to detect cell viability. The IC50 of each compound for 6 days was calculated using GraphPadPrism software based on the inhibition rate. Table 6: IC50 value for the inhibition of T-47D cell proliferation by PROTAC compounds and positive control sample

Test [5] concerns MCF-7 cells. Briefly: MCF-7 cell proliferation inhibition (CCK-8). The note with it: Homo sapiens, MCF7, 144 h, 6 days. The method, then:
The complete culture medium required for breast cancer MCF-7 cells (source ATCC) is DMEM (gibco, Product number: 11995-065) basal medium containing 10% fetal bovine serum. MCF-7 cells were seeded in 96-well plates at a density of 800 cells/well, and different concentrations of PROTAC compounds 1-55 provided in the embodiments of the present invention and the positive control sample ARV-471 (source: Inokai) were prepared to treat cells. The cells were incubated at 37 °C and 5% CO2 in a cell culture incubator for 6 days. Cell viability was detected using a CCK-8 kit (Beyotime, Product number: C0040) according to the manufacturer's instructions. The IC50 value of each PROTAC compound for 6 days was calculated using GraphPad Prism software based on the inhibition rate. Table 7: IC50 value for the inhibition of MCF-7 cell proliferation by PROTAC compounds of the present disclosure and positive control sample

Structures are written as SMILES.

T1 sequence (P10275 whole entry T878A): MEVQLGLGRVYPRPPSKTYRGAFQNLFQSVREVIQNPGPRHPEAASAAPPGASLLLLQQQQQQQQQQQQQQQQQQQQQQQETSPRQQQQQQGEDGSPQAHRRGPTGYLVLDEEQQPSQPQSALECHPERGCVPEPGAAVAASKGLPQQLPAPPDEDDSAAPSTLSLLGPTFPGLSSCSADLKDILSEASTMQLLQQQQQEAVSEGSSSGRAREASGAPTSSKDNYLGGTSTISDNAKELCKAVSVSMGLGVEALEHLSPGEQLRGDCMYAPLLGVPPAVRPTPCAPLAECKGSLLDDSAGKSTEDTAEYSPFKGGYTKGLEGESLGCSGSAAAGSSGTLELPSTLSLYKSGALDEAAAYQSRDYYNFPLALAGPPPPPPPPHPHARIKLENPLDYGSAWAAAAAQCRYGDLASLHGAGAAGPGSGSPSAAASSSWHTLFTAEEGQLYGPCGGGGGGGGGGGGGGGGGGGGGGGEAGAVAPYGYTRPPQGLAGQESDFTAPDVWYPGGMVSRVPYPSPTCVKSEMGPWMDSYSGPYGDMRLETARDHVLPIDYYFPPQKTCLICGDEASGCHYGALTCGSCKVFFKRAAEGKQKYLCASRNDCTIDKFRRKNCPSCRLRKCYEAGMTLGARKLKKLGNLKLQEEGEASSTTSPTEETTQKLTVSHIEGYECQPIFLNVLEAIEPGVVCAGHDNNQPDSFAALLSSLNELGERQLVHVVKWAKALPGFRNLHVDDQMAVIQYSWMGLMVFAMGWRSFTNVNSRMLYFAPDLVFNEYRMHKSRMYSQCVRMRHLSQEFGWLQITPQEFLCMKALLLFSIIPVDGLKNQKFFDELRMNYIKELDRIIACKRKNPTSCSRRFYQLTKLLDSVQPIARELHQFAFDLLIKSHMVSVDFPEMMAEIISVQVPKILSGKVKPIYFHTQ
T1 sequence (Q96SW2 whole entry partner): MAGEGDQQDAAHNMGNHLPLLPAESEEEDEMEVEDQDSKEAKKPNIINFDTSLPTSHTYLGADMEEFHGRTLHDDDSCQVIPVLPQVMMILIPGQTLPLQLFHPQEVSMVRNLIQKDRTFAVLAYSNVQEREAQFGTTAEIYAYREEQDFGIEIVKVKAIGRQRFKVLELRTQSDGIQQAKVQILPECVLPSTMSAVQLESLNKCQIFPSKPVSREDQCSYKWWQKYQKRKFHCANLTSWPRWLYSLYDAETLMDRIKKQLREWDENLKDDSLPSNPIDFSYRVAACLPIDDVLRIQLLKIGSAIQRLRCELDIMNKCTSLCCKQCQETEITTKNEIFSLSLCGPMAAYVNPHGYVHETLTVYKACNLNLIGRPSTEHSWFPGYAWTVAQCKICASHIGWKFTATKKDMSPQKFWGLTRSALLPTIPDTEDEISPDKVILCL

For `COc1cc(N2CC3(CCN(c4ccc(C(=O)N5CCC(CN6CCC7(CCc8ccc(N9CCC(=O)NC9=O)cc8O7)CC6)CC5)cc4)CC3)C[C@@H]2C)ccc1C#N` [A-P-83, (S)-4-(8-(4-(4-((7-(2,4-dioxotetrahydropyrimidin-1(2H)-yl)spiro[chroman-2,4'-piperidine]-1'-yl)methyl)piperidine-1-carbonyl)phenyl)-3-methyl-2,8-diazaspiro[4.5]dec-2-yl)-2-methoxybenzonitrile], the “Degradation rate of AR protein in LNCAP cells” value in test [1] (10 nM) and in test [1] (100 nM) was “A (degradation rate ≥ 50%)” in each case. The IC50 in test [2] is 550 nM; in test [3], less than 0.026 nM.

`O=C1CC[C@H](N2Cc3cc(N4CCN(CC5CCN(c6ccc([C@@H]7c8ccc(O)cc8CC[C@@H]7c7ccccc7)cc6)CC5)CC4)ccc3C2=O)C(=O)N1` [ARV-471, reference compound]: the IC50 in test [4] came out at 2.69 nM; in test [5], 113 nM.

For `O=C1CCN(c2ccc3c(c2)OCC32CCN(C[C@H]3CC[C@@H](OC4CCN(c5ccc([C@@H]6c7ccc(O)cc7CC[C@@H]6c6ccccc6)cc5)CC4)CC3)CC2)C(=O)N1` [ER-P-4, 1-(1'-(((1S,4S)-4-((1-(4-((1R,2S)-6-hydroxy-2-phenyl-1,2,3,4-tetrahydronaphthalen-1-yl)phenyl)piperidin-4-yl)oxy)cyclohexyl)methyl)-2H-spiro [benzofuran-3,4'-piperidine]-6-yl)dihydropyrimidine-2,4(1H,3H)-dione], the IC50 in test [4] worked out at 52.5 nM; in test [5], 944 nM.

As for `O=C1CCC(c2ccc3c(c2)OC2(CC3)CCN(C[C@H]3CC[C@@H](OC4CCN(c5ccc([C@@H]6c7ccc(O)cc7CC[C@@H]6c6ccccc6)cc5)CC4)CC3)CC2)C(=O)N1` (stereo partly drawn) [ER-P-5, 3-(1'-(((1S,4S)-4-((1-(4-((1R,2S)-6-hydroxy-2-phenyl-1,2,3,4-tetrahydronaphthyl-1-yl)phenyl)piperidin-4-yl)oxy)cyclohexyl)methyl)spiro[chroman-2,4'-piperidine]-7-yl)piperidine-2,6-dione], the IC50 in test [5] was determined as 873 nM.

In the case of `O=C1CCN(c2ccc3c(c2)CC2(CCN(C[C@H]4CC[C@@H](OC5CCN(c6ccc([C@@H]7c8ccc(O)cc8CC[C@@H]7c7ccccc7)cc6)CC5)CC4)CC2)CO3)C(=O)N1` [ER-P-6, 1-(1'-(((1S,4S)-4-((1-(4-((1R,2S)-6-hydroxy-2-phenyl-1,2,3,4-tetrahydronaphthalen-1-yl)phenyl)piperidin-4-yl)oxy)cyclohexyl)methyl)spiro[benzo-dihydro-3,4'-piperidin]-6-yl)dihydropyrimidine-2,4(1H,3H)-dione], the IC50 worked out at 367 nM in test [4] and 847 nM in test [5].
